Laboratory results reported in ChEMBL document CHEMBL3046576, “Rational exploration of new pyridinium-based HSP90 inhibitors tailored to thiamine structure” (Med Chem Res, 2012).
Calls of active or inactive are those of the source. The calls are words filed in the database; no cut-off is given here.

Tests used:
[1] = biological target: T1, Heat shock protein HSP 90-alpha (Homo sapiens, UniProt P07900); assay: Inhibition of recombinant Homo sapiens (human) Hsp90 alpha ATPase activity assessed as inorganic phosphate release by malachite green colorimetric method
[2] = biological target: T1, Heat shock protein HSP 90-alpha; assay: Inhibition of recombinant Homo sapiens (human) Hsp90 alpha ATPase activity assessed as inorganic phosphate release at 10 uM by malachite green colorimetric method

| SMILES | IC50 [1] [µM] | inhibition [2] |
| --- | --- | --- |
| COc1ccc(NC(=O)C[n+]2ccccc2)cc1 | 13.3 | 43% |
| O=C(C[n+]1cccc(C(=O)Nc2ccc(Cl)cc2)c1)Nc1ccc(Cl)cc1 | – | inactive |
| NS(=O)(=O)c1ccc(NC(=O)C[n+]2ccccc2)cc1 | – | 7% |
| NS(=O)(=O)c1ccc(NC(=O)C[n+]2cccc(C(=O)Nc3ccc([N+](=O)[O-])cc3)c2)cc1 | – | 8% |
| O=C(C[n+]1cccc(C(=O)Nc2ccc(Cl)cc2)c1)Nc1ccc([N+](=O)[O-])cc1 | – | 24% |
| CSc1ccc(NC(=O)C[n+]2cccc(C(=O)Nc3ccccc3)c2)cc1 | – | 14% |
| O=C(C[n+]1ccccc1)Nc1ccc([N+](=O)[O-])cc1 | 14.9 | 34% |
| COc1ccc(NC(=O)C[n+]2cccc(C(=O)Nc3ccc(OC)cc3)c2)cc1 | – | 3% |
| NS(=O)(=O)c1ccc(NC(=O)C[n+]2cccc(C(=O)Nc3ccccc3)c2)cc1 | 26.6 | 47% |
| O=C(C[n+]1ccccc1)Nc1ccc(Cl)cc1 | – | 3% |
| CSc1ccc(NC(=O)c2ccc[n+](CC(=O)Nc3ccc(Cl)cc3)c2)cc1 | – | 19% |
| Cc1ccc(NC(=O)C[n+]2cccc(C(=O)Nc3ccccc3)c2)cc1 | 7.4 | 59% |
| C=CCNC(=O)c1ccc[n+](CC(=O)Nc2ccc(OC)cc2)c1 | 48.5 | 32% |
| NC(=O)c1ccc[n+](CC(=O)Nc2ccc([N+](=O)[O-])cc2)c1 | 7.6 | 62% |
| NC(=O)c1ccc[n+](CCc2ccccc2)c1 | – | 9% |
| COc1ccc(NC(=O)C[n+]2cccc(C(=O)Nc3ccc(Cl)cc3)c2)cc1 | – | 2% |
| CC(=O)NS(=O)(=O)c1ccc(NC(=O)C[n+]2cccc(C(N)=O)c2)cc1 | 12.7 | 36% |
| N=C(N)NS(=O)(=O)c1ccc(NC(=O)C[n+]2ccccc2)cc1 | – | 20% |
| COc1ccc(NC(=O)C[n+]2cccc(C(=O)Nc3ccc([N+](=O)[O-])cc3)c2)cc1 | – | inactive |

| SMILES | IC50 [1] [µM] | inhibition [2] |
| --- | --- | --- |
| COc1ccc(NC(=O)C[n+]2cccc(C(N)=O)c2)cc1 | – | 20% |
| CCOC(=O)C[n+]1cccc(C(N)=O)c1 | – | 13% |
| NC(=O)c1ccc[n+](CC(=O)NCCc2ccccc2)c1 | 16.4 | 46% |
| Cc1ccccc1NC(=O)C[n+]1cccc(C(N)=O)c1 | – | 8% |
| C=CCNC(=O)c1ccc[n+](CC(=O)Nc2ccc(C)cc2)c1 | – | 23% |
| O=C(C[n+]1ccccc1)NCc1ccccc1 | 49.6 | 36% |
| O=C(C[n+]1ccccc1)Nc1ccccc1 | – | 3% |
| NS(=O)(=O)c1ccc(NC(=O)C[n+]2cccc(C(=O)Nc3ccc(Cl)cc3)c2)cc1 | – | 3% |
| Cc1ccc(NC(=O)C[n+]2cccc(C(=O)Nc3ccc([N+](=O)[O-])cc3)c2)cc1 | – | 21% |
| COc1ccc(NC(=O)C[n+]2cccc(C(=O)Nc3ccccc3)c2)cc1 | – | 4% |
| NC(=O)c1ccc[n+](CC(=O)Nc2ccc(Cl)cc2)c1 | – | 24% |
| COc1ccc(NC(=O)c2ccc[n+](CC(=O)Nc3ccc([N+](=O)[O-])cc3)c2)cc1 | – | inactive |
| COc1ccc(NC(=O)c2ccc[n+](CC(=O)Nc3ccc(S(N)(=O)=O)cc3)c2)cc1 | – | 23% |
| C=CCNC(=O)C[n+]1cccc(C(N)=O)c1 | – | inactive |
| Cc1cccc(NC(=O)C[n+]2cccc(C(N)=O)c2)c1 | 13.2 | 34% |
| N=C(N)NS(=O)(=O)c1ccc(NC(=O)C[n+]2cccc(C(N)=O)c2)cc1 | – | 29% |
| C=CCNC(=O)c1ccc[n+](CC(=O)Nc2ccc(Cl)cc2)c1 | – | 1.6% |
| Cc1ccc(NC(=O)C[n+]2cccc(C(=O)Nc3cccc(C)c3)c2)cc1 | – | 16% |
| CC(=O)NS(=O)(=O)c1ccc(NC(=O)C[n+]2ccccc2)cc1 | 12.7 | 46% |

| SMILES | IC50 [1] [µM] | inhibition [2] |
| --- | --- | --- |
| CSc1ccc(NC(=O)c2ccc[n+](CC(=O)Nc3ccc(C)cc3)c2)cc1 | – | 18% |
| Cc1ncc(C[n+]2csc(CCO)c2C)c(N)n1 [THIAMINE ION] | 12.5 | 40% |
| Cc1cccc(NC(=O)c2ccc[n+](CC(=O)Nc3ccc(Cl)cc3)c2)c1 | – | 24% |
| Cc1ccc(NC(=O)C[n+]2cccc(C(N)=O)c2)cc1 | 42.2 | 34% |
| COc1ccc(NC(=O)c2ccc[n+](CC(=O)Nc3ccc(C)cc3)c2)cc1 | – | 20% |
| NC(=O)c1ccc[n+](Cc2ccccc2)c1 | – | 10% |
| NC(=O)c1ccc[n+](CC(=O)Nc2ccc(S(N)(=O)=O)cc2)c1 | 12 | 32% |
| Cc1ccc(NC(=O)C[n+]2cccc(C(=O)Nc3ccc(Cl)cc3)c2)cc1 | 17.3 | 48% |
| CSc1ccc(NC(=O)C[n+]2cccc(C(=O)Nc3ccc(Cl)cc3)c2)cc1 | – | 24% |
| Cc1cccc(NC(=O)C[n+]2ccccc2)c1 | – | 12% |
| O=C(C[n+]1cccc(C(=O)Nc2ccccc2)c1)Nc1ccc([N+](=O)[O-])cc1 | – | 11% |
| CSc1ccc(NC(=O)c2ccc[n+](CC(=O)Nc3ccc([N+](=O)[O-])cc3)c2)cc1 | – | 3% |
| C=CCNC(=O)c1ccc[n+](CC(=O)Nc2ccc([N+](=O)[O-])cc2)c1 | – | 20% |
| NC(=O)c1ccc[n+](CC(=O)Nc2ccccc2)c1 | 13.3 | 37% |
| COc1ccc(NC(=O)C[n+]2cccc(C(=O)Nc3ccc(SC)cc3)c2)cc1 | – | 29% |
| O=C(C[n+]1cccc(C(=O)Nc2ccccc2)c1)Nc1ccc(Cl)cc1 | – | 17% |
| Cc1ccc(NC(=O)C[n+]2ccccc2)cc1 | – | inactive |
| COc1ccc(NC(=O)c2ccc[n+](CC(=O)Nc3ccc(Cl)cc3)c2)cc1 | – | 10% |
| NC(=O)c1ccc[n+](CC(=O)NCc2ccccc2)c1 | – | 20% |
